Assay results published in US20250092039A1, “GLUTARIMIDE-CONTAINING PAN-KRAS-MUTANT DEGRADER COMPOUNDS AND USES THEREOF” (Tiger Biotherapeutics Inc., priority 2022, published 2025).

Experiments:
[1] = test system: SW620 cells; assay: 3D cell growth inhibition of SW620 cells carrying endogenous KRAS G12V mutation (CellTiter-Glo 3D, GI50); format: cell-based; conditions: Homo sapiens, SW-620, 144 h; SW620 cells, 6 days; read-out: SW620 3D cell growth GI50
Procedure, shortened: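 […], compound exposure lasted 6 days at 37° C, added the day after plating from DMSO stocks over a concentration range. Cells: SW620, KRAS G12V, 3D culture.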

[2] = molecular target: KRAS-G12V/RAF1 (Homo sapiens (Human), UniProt P01116, G12V); assay: KRAS/RAF1 binding inhibition assay (AlphaScreen)
Procedure, shortened: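 IC50 comes from variable-slope nonlinear fits of % inhibition (relative to DMSO) against inhibitor concentration. The AlphaScreen signal tracks the interaction of GppNHp-bound KRAS G12V with the RAF1 RBD after 60 min at 4° C with compound in 2% DMSO final.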

[3] = molecular target: KRAS G12V (Homo sapiens (Human), UniProt P01116, G12V); assay: KRAS G12V degradation in SW620 cells (Western blot, DC50); format: cell-based; conditions: 24 hours
Procedure, shortened: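 KRAS levels were quantified by fluorescent Western blot as percent of the DMSO control after 24 h of compound exposure at 37° C in homozygous KRAS G12V SW620 cells. A four-parameter variable-slope fit of the dose-response gave the half-maximal degradation concentration.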

Sequence of KRAS G12V (P01116-2 other isoform, or with tags, fused parts or gaps G12V): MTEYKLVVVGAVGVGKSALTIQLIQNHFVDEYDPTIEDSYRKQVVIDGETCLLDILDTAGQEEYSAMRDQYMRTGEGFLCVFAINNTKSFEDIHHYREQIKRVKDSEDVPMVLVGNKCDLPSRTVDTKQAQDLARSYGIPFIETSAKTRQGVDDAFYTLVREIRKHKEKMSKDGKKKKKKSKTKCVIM
Sequence of KRAS-G12V/RAF1 (P01116-2 other isoform, or with tags, fused parts or gaps G12V): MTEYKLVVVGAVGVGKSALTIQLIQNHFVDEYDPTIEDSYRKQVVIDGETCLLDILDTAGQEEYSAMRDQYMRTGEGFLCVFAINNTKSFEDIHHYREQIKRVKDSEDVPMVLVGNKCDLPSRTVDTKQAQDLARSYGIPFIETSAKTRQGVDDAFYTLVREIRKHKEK

| SMILES | GI50 [1] [nM] | IC50 [2] [nM] | DC50 [3] [nM] |
| --- | --- | --- | --- |
| CCc1c(F)ccc2cc(O)cc(-c3ncc4c(N5CCC[C@@](C)(O)C5)nc(OCC5(CN6CCC(N7CC8(CCN(c9cc(F)c(C%10CCC(=O)NC%10=O)c(F)c9)CC8)C7)CC6)CC5)nc4c3F)c12 (stereo partly drawn) [Compound 57, 3-(4-(2-(1-((1-(((7-(8-ethyl-7-fluoro-3-hydroxynaphthalen-1-yl)-8-fluoro-4-((R)-3-hydroxy-3-methylpiperidin-1-yl)pyrido[4,3-d]pyrimidin-2-yl)oxy)methyl)cyclopropyl)methyl)piperidin-4-yl)-2,7-diazaspiro[3.5]nonan-7-yl)-2,6-difluorophenyl)piperidine-2,6-dione] | < 10 | < 20 | 1 to 10 |
| CCc1c(F)ccc2cc(O)cc(-c3ncc4c(N5CCOC[C@@](C)(O)C5)nc(OCC5(CN6CCC7(CC6)CC(CN6CCN(c8ccc9c(c8)CN([C@H]8CCC(=O)NC8=O)C9=O)CC6)C7)CC5)nc4c3F)c12 [Compound 105, (S)-3-(5-(4-((7-((1-(((7-(8-ethyl-7-fluoro-3-hydroxynaphthalen-1-yl)-8-fluoro-4-((S)-6-hydroxy-6-methyl-1,4-oxazepan-4-yl)pyrido[4,3-d]pyrimidin-2-yl)oxy)methyl)cyclopropyl)methyl)-7-azaspiro[3.5]nonan-2-yl)methyl)piperazin-1-yl)-1-oxoisoindolin-2-yl)piperidine-2,6-dione] | > 100 | 20 to 200 | > 100 |
| CCc1cccc2cc(O)cc(-c3ncc4c(N5CCC[C@@](C)(O)C5)nc(OCC5(CN6CCC7(CC6)CC(N6CCN(c8ccc9c(c8)C(=O)N(C8CCC(=O)NC8=O)C9=O)CC6)C7)CC5)nc4c3F)c12 (stereo partly drawn) [Compound 31, 2-(2,6-dioxopiperidin-3-yl)-5-(4-(7-((1-(((7-(8-ethyl-3-hydroxynaphthalen-1-yl)-8-fluoro-4-((R)-3-hydroxy-3-methylpiperidin-1-yl)pyrido[4,3-d]pyrimidin-2-yl)oxy)methyl)cyclopropyl)methyl)-7-azaspiro[3.5]nonan-2-yl)piperazin-1-yl)isoindoline-1,3-dione] | < 10 | 20 to 200 | 1 to 10 |
| CCc1cccc2cc(O)cc(-c3ncc4c(N5CCC[C@@](C)(O)C5)nc(OCC5(CN6CCC7(CC6)CCN(c6ccc8c(c6)CN(C6CCC(=O)NC6=O)C8=O)CC7)CC5)nc4c3F)c12 (stereo partly drawn) [Compound 140, 3-(5-(9-((1-(((7-(8-ethyl-3-hydroxynaphthalen-1-yl)-8-fluoro-4-((R)-3-hydroxy-3-methylpiperidin-1-yl)pyrido[4,3-d]pyrimidin-2-yl)oxy)methyl)cyclopropyl)methyl)-3,9-diazaspiro[5.5]undecan-3-yl)-1-oxoisoindolin-2-yl)piperidine-2,6-dione] | < 10 | 20 to 200 | < 1 |
| CCc1c(F)ccc2cc(O)cc(-c3ncc4c(N5CCC[C@@](C)(O)C5)nc(OCC5(CN6CCC(C)(CN7CCN(c8ccc9c(c8)CN([C@@H]8CCC(=O)NC8=O)C9=O)CC7)CC6)CC5)nc4c3F)c12 [Compound 63, (R)-3-(5-(4-((1-((1-(((7-(8-ethyl-7-fluoro-3-hydroxynaphthalen-1-yl)-8-fluoro-4-((R)-3-hydroxy-3-methylpiperidin-1-yl)pyrido[4,3-d]pyrimidin-2-yl)oxy)methyl)cyclopropyl)methyl)-4-methylpiperidin-4-yl)methyl)piperazin-1-yl)-1-oxoisoindolin-2-yl)piperidine-2,6-dione] | < 10 | 20 to 200 | 1 to 10 |
| CCc1cccc2cc(O)cc(-c3ncc4c(N5CCC[C@@](C)(O)C5)nc(OCC5(CN6CC7(CCN(c8ccc9c(c8)CN(C8CCC(=O)NC8=O)C9=O)CC7)C6)CC5)nc4c3F)c12 (stereo partly drawn) [Compound 16, 3-(5-(2-((1-(((7-(8-ethyl-3-hydroxynaphthalen-1-yl)-8-fluoro-4-((R)-3-hydroxy-3-methylpiperidin-1-yl)pyrido[4,3-d]pyrimidin-2-yl)oxy)methyl)cyclopropyl)methyl)-2,7-diazaspiro[3.5]nonan-7-yl)-1-oxoisoindolin-2-yl)piperidine-2,6-dione] | > 100 | 20 to 200 | > 100 |
